Values quoted from earlier work, collected in patent publication US20190320698A1, “HYDROLYZED PECTIN AND USEOF THE SAME” (International Flavors & Fragrances Inc., priority 2018, published 2019).

Conditions: approximate values

Row | SMILES | Water Solubility (g/L, approx.)
1 | CCCC(=O)OCC [ethyl butyrate] | ~6 g/L
2 | CCOC(=O)CC [ethyl propionate] | ~14 g/L
3 | CCOC(C)=O [ethyl acetate] | ~90 g/L
4 | CCCC(=O)OC [methyl butyrate] | ~15 g/L
5 | CSC [dimethyl sulfide] | Insoluble
